Like-named read-outs stand apart in the source and are kept apart here.
Legend:
[1] = tested on: HEK293 cells stably transduced with the human OCT3 transporter; experiment: Cellular oxygen consumption rate (OCR), MitoXpress Xtra; type: cell-based; details: HEK293 cells expressing human OCT3; compared to DMSO control; 2 hours
Outline: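 HEK293 cells stably expressing human OCT3, treated with four compound concentrations; oxygen consumption followed by MitoXpress Xtra TR-F lifetime (340/650 nm) every 2 min for 2 h. Lifetime slope from the linear portion taken as OCR; FCCP (1 μM) as stimulated control, differences versus DMSO by t-test.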

[2] = Metabolic stability in mouse liver microsomes; type: in vitro ADME
Description: Three experiments were performed with 1) 0.5mg/ml microsomes and 1mM NADPH, 2) 0.5mg/ml microsomes without NADPH and 3) 0.5mg/ml heat inactivated microsomes without NADPH in 100mM phosphate buffer, containing 5mM magnesium chloride. […] At the indicated time points, 50μl samples were removed and stopped by addition of 4 volumes of cold acetonitrile with internal standards, 100nM alprazolam, 200nM labetalol and 2μM ketoprofen. The samples were centrifuged at 3,220 g for 40 minutes and aliquots of 100μl were subsequently diluted with 100μl of ultra-pure water and analyzed by LC/MS/MS using a (Shimadzu corporation) LC system coupled to a Shimadzu Triple Quad 5500 mass spectrometer with an ESI interface. The LC system used a Waters XSelect HSS T3 C18, 2.5μm, 2.1 x 50 mm column eluted with one of two methods using mobile phases A (water, 0.1% formic acid) and B (acetonitrile, 0.1% formic acid). […] The Shimadzu Triple Quad 5500 MS was operated with the following parameters: Ion source: Turbo spray; Ionization mode: ESI; Scan type: MRM; Collision gas: 10 L/min; Curtain gas: 30 L/min; Nebulize gas: 50 L/min; Auxiliary gas: 50 L/min; Temperature: 500°C; Ionspray voltage: +5500 V (positive MRM). All experiments were performed in duplicate. Data were analyzed using Microsoft excel, and peak areas were determined from extracted ion chromatograms.

[3] = Pharmacokinetic profile in Sprague Dawley rats (IV and PO); type: in vivo; details: Mean + SD (n = 3)
Description: To evaluate the pharmacokinetic profile by oral (PO) and intravenous (IV) administration routes we used 6 to 8-week old Sprague Dawley rats weighing approximately 200-330g (n = 3 per study group). Compounds were administered at 1mg/kg in 5% Cremophor EL and 20% PEG400 in water for IV and 5mg/kg in PBS for PO. All dose formulation was performed at room temperature. Animals were fasted overnight prior to dosing and were re-fed approximately 4 hours after dosing. For PO, 0.2ml of blood was collected pre- and 0.5, 1, 2, 4 8 12 and 24-hours after drug delivery and transferred to EDTA-K2 BD Vacutainer plastic blood collection tubes. IV samples were collected pre-injection and 0.08, 0.25, 0.5, 1, 2, 4, 8, 12, 24-hours post injection. Blood samples were centrifuged at 2,000 g for 5 minutes at 4°C to obtain plasma. Plasma samples were stored at -75±15°C prior to analysis and then thawed and analyzed by LC-MS/MS method and pharmacokinetic calculations were performed using WinNolin (Phoenix, version 6.4). For IV administration: T1/2, C0, AUClast, AUCinf, MRT, Cl, Vss, and number of points for regression were determined. For PO administration: T1/2, Cmax, Tmax, AUCinf, AUClast, F(0-∞) %, and number of points for regression were determined. Data are reported as mean and standard deviation.

[4] = tested on: Salmonella typhimurium TA100; details: for Mean Revertant Colony Counts TA-100 SP9+: with S9; for Mean Revertant Colony Counts TA-100 S9-: without S9
[5] = tested on: Salmonella typhimurium TA98; experiment: Ames assay, strain TA98; details: for Mean Revertant Colony Counts TA98 SP9+: with S9; for Mean Revertant Colony Counts TA98 S9-: without S9

CC(C)(C)c1ccc(O)c(C(=O)Nc2ccc(C(=O)O)cc2C(F)(F)F)c1 [Compound 500873, 4-[(5-tert-butyl-2-hydroxy)amido]-3-(trifluoromethyl)benzoic acid]
change in respiration / oxygen consumption rate (OCR) [1]: no change in respiration | Remaining Percentage of 60 min (%), Mouse, Tested Sample ([2]; 0.5mg/ml microsomes and 1mM NADPH, 60 min): 107.5% | Remaining Percentage of 60 min (%), Mouse, Negative Control ([2]; 0.5mg/ml microsomes without NADPH, 60 min): 106.4% | stability in MLM ([2]; 60 minutes): stable | Remaining Percentage of 60 min (%), Mouse, Heat-inactivated Control ([2]; heat inactivated microsomes without NADPH, 60 min): 105.5% | AUC _%Extrap_obs (IV) ([3]; IV 1 mg/kg): 0.249 +/- 0.151% | AUCl ast/D (IV) ([3]; IV 1 mg/kg): 13000 ± 3070 ng·kg·h/mL/mg | V ss_obs ([3]; IV 1 mg/kg): 0.11 ± 0.004 L/kg | AUC _%Extrap_obs (PO) ([3]; PO 5 mg/kg in PBS): 11.14 +/- 11.6% | AUC last / D (PO) ([3]; PO 5 mg/kg in PBS): 1290 ± 817 ng·kg·h/mL/mg | C max ([3]; PO 5 mg/kg in PBS, 5 mg/kg): 912.33 ± 856 ng/mL | F (oral bioavailability) ([3]; PO 5 mg/kg vs IV 1 mg/kg): 10.20 +/-6.3% | half-life ([3]; Sprague Dawley, rat, plasma, iv, 1 mg/kg, IV 1 mg/kg, read-out: T 1/2 (IV) (converted)): 2.87 ± 0.86 h | Cmax ([3]; Sprague Dawley, rat, plasma, po, 5 mg/kg, PO 5 mg/kg in PBS): 912 ng/mL | bioavailability ([3]; Sprague Dawley, rat, plasma, po, 5 mg/kg, PO 5 mg/kg vs IV 1 mg/kg, read-out: F (oral bioavailability)): 10% | C0 ([3]; rat, plasma, IV 1 mg/kg): 24100 ± 4000 ng/mL | AUC(0-inf) ([3]; rat, plasma, IV 1 mg/kg, read-out: AUC Inf (IV)): 13000 ± 3070 ng·h/mL | AUC(0-t) ([3]; rat, plasma, IV 1 mg/kg, read-out: AUC last (IV)): 13000 ± 3070 ng·h/mL | clearance ([3]; rat, plasma, IV 1 mg/kg, read-out: Cl_obs): 1.33 ± 0.31 mL/min/kg | MRT inf ([3]; rat, plasma, IV 1 mg/kg, read-out: MRT Inf_obs (IV)): 1.42 ± 0.29 h | Tmax ([3]; rat, plasma, PO 5 mg/kg in PBS): 3.33 ± 1.15 h | AUC(0-inf) ([3]; rat, plasma, PO 5 mg/kg in PBS, read-out: AUC Inf (PO)): 6950 ± 3680 ng·h/mL | AUC(0-t) ([3]; rat, plasma, PO 5 mg/kg in PBS, read-out: AUC last (PO)): 6430 ± 4080 ng·h/mL | MRT inf ([3]; rat, plasma, PO 5 mg/kg in PBS, read-out: MRT Inf_obs (PO)): 10 ± 5.6 h | Mean Revertant Colony Counts TA-100 SP9+ ([4]; 1.5 ug/Well): 22.3 | Mean Revertant Colony Counts TA-100 S9- ([4]; 1.5 ug/Well): 33.0 | Mean Revertant Colony Counts TA-100 SP9+ ([4]; 4 ug/Well): 18.3 | Mean Revertant Colony Counts TA-100 S9- ([4]; 4 ug/Well): 31.7 | Mean Revertant Colony Counts TA-100 SP9+ ([4]; 10 ug/Well): 20.7 | Mean Revertant Colony Counts TA-100 S9- ([4]; 10 ug/Well): 28.3 | Mean Revertant Colony Counts TA-100 SP9+ ([4]; 25 ug/Well): 16.7 | Mean Revertant Colony Counts TA-100 S9- ([4]; 25 ug/Well): 25.0 | Mean Revertant Colony Counts TA-100 SP9+ ([4]; 64 ug/Well): 18.3 | Mean Revertant Colony Counts TA-100 S9- ([4]; 64 ug/Well): 28.7 | Mean Revertant Colony Counts TA-100 SP9+ ([4]; 160 ug/Well): 22.7 | Mean Revertant Colony Counts TA-100 S9- ([4]; 160 ug/Well): 25.0 | Mean Revertant Colony Counts TA-100 SP9+ ([4]; 400 ug/Well): 17.7 | Mean Revertant Colony Counts TA-100 S9- ([4]; 400 ug/Well): 21.0 | fold increase in the mean number of revertant colonies, TA100 ([4]; any concentration tested, vs negative control): < 2 fold | Mean Revertant Colony Counts TA98 SP9+ ([5]; 1.5 ug/Well): 5.7 | Mean Revertant Colony Counts TA98 S9- ([5]; 1.5 ug/Well): 5.0 | Mean Revertant Colony Counts TA98 SP9+ ([5]; 4 ug/Well): 6.0 | Mean Revertant Colony Counts TA98 S9- ([5]; 4 ug/Well): 9.0 | Mean Revertant Colony Counts TA98 SP9+ ([5]; 10 ug/Well): 6.3 | Mean Revertant Colony Counts TA98 S9- ([5]; 10 ug/Well): 4.0 | Mean Revertant Colony Counts TA98 SP9+ ([5]; 25 ug/Well): 9.3 | Mean Revertant Colony Counts TA98 S9- ([5]; 25 ug/Well): 7.7 | Mean Revertant Colony Counts TA98 SP9+ ([5]; 64 ug/Well): 8.3 | Mean Revertant Colony Counts TA98 S9- ([5]; 64 ug/Well): 11.7 | Mean Revertant Colony Counts TA98 SP9+ ([5]; 160 ug/Well): 10.3 | Mean Revertant Colony Counts TA98 S9- ([5]; 160 ug/Well): 10.0 | Mean Revertant Colony Counts TA98 SP9+ ([5]; 400 ug/Well): 14.0 | Mean Revertant Colony Counts TA98 S9- ([5]; 400 ug/Well): 11.7 | Mean Revertant Colony Counts TA98 SP9+ ([5]; 1000 ug/Well): 16.3 | Mean Revertant Colony Counts TA98 S9- ([5]; 1000 ug/Well): 14.0 | fold increase in revertant colonies, TA98 ([5]; 1000 μg/well in the absence of S9 mix): ≥ 2 fold

— publication PMC6201879, “N-substituted phenylbenzamides of the niclosamide chemotype attenuate obesity related changes in high fat diet fed mice” (PLoS ONE, 2018)
